This is an account of results in patent US20260055118A1, “VISIBLE LIGHT SENSITIVE PHOTOREMOVABLE PROTECTING GROUPS, PREPARATION PROCESS THEREOF, PHOTOACTIVATABLE CONJUGATES COMPRISING THEM AND USES THEREOF” (HUN-REN TERMÉSZETTUDOMÁNYI KUTATÓKÖZPONT, priority 2022, published 2026).

Data set [1] in a line: Uncaging quantum yield determination relative to BODIPY reference. Format: physicochemical. The following applies: calculated from the disappearance of the target conjugate; green light irradiation. On the procedure:
The relative photochemical quantum yields of the uncaging reactions together with the degradation quantum yields were determined from the results of the quantitative HPLC-UV experiments. In all cases, green light irradiation was used since all target conjugates absorbed in this range as well as the reference BODIPY. The photochemical quantum yields were determined using the following equation:
[formula] • where • Φu is the photochemical quantum yield of the sample • Φu,ref is the photochemical quantum yield of the reference • k is the obtained reaction rate constant of the photoreaction of the sample • kref is the obtained reaction rate constant of the photoreaction of the reference • c is the concentration of the sample • cref is the concentration of the reference • V is the volume of the sample • Vref is the volume of the reference • a is the absorption correction factor of the sample • aref is the absorption correction factor of the reference
The absorption correction factors (a) were determined from the molar absorption coefficients and the green LED emission data obtained by the fluorimeter. […] In other words, the transmittance at each wavelength together with the emission data of the light source can be used to calculate the percentage of absorbed photons according to the following equation:
[formula] • where • T(λ) is the transmittance at each wavelength (determined from the molar absorption coefficients) • F(λ) is the LED emission at each wavelength • λmin, λmax is the LED emission range.
The rate constants of the photoreactions were determined by considering the reactions monoexponential with an initial linear phase (up to 10-20% degradation). First, the concentration vs. HPLC-UV peak were determined for each cargo moieties. […] The rate constants were determined for both the reference (with known Φu) and the sample. For reference, a commonly known BODIPY derivative was used with a similar phenylacetic acid-derived cargo unit (substrate 7 from REF^40), Φu=0.15%:
The calculated photochemical quantum yields together with uncaging cross-sections or quantum efficiencies (product of the molar absorption coefficient at a given wavelength, shown in parentheses and the photochemical quantum yield) are shown in Table 2. In the table, Φu is the photochemical quantum yield of the release; Φdeg is the photochemical quantum yield of degradation; ε×Φu is the uncaging cross-section or quantum efficiency of the release at a given wavelength in parentheses.

Data set [2] is described as follows: Spectroscopic properties of the target conjugates in PBS. The data set is classed as physicochemical. As to the method:
All starting materials were obtained from commercial suppliers and used without further purification. Analytical thin-layer chromatography (TLC) was performed on silica gel 60 F254 precoated aluminum TLC plates from Merck. Flash column chromatography was performed on Teledyne Isco CombiFlash® Rf+ automated flash chromatographer with silica gel (25-40 μm) from Zeochem. NMR spectra were recorded on a Varian Inova 500 MHz spectrometer. Chemical shifts (δ) are given in parts per million (ppm) using solvent signals or TMS as the reference. Coupling constants (J) are reported in Hertz (Hz). Analytical RP-HPLC-UV/Vis-MS measurements were employed using a Shimadzu LCMS-2020 instrument applying a Gemini C18 column (100×2.00 mm I.D.) in which the stationary phase is […] with a pore size of 110 Å. The chromatograms were detected by a UV-Vis diode array (190-800 nm) and an ESI-MS detector. The following linear gradient elution profile was applied, 0 min 0% B; 6.5 min 100% B; 7 min 0% B; 8 min. 0% B) with eluent A (2% HCOOH, 5% MeCN and 93% water) and B (2% HCOOH, 80% MeCN and 18% water) at a flow rate of 1.0 mL min-1 at 30° C. The samples were dissolved in MeCN—water mixtures. Spectroscopic measurements were performed on a Jasco FP 8300 spectrofluorometer. Quartz cuvettes with path length of 1 cm were used.
The spectroscopic properties of the target conjugates were determined in PBS. […] Compounds with Q=O have absorption bands in the green-yellow region while Q=CMe2 derivatives absorb in the red (up to 700 nm). All of the compounds have moderate to high absorption coefficients and significant fluorescence. The spectroscopic details can be found in Table 1. In the table, λmax means absorption maximum; λem means fluorescence emission maximum; s means molar absorption coefficient (at the absorption maximum).

As to `CCc1c2c(nc3ccc(OC(=O)N(C)CCN(C)C(=O)OC(C)c4c5ccc(=[N+]6CCCC6)cc-5oc5cc(N6CCCC6)ccc45)cc13)-c1cc3c(c(=O)n1C2)COC(=O)C3(O)CC.[I-]` (mixture of isomers) [X1′-SN38], the “Φdeg, degradation quantum yield” value in data set [1] was 0.15%. Also, in data set [2], the “λem (fluorescence emission maximum)” value came to 594 nm and the “λmax (absorption maximum)” value is recorded as 575 nm. Moreover, the “ε (molar absorption coefficient)” value in data set [2] (at the absorption maximum) is 61 200 M^−1cm^−1.
